Experimental data reported in patent US20110160238A1, “OCTAHYDROQUINOLIZINES FOR ANTIDIABETIC TREATMENT” (55PHARMA DRUG DISCOVERY & DEVELOPMENT AG, priority 2008, published 2011).

System: Male C57BL/6 mice
Test: oral glucose tolerance test in mice
Format: in vivo
Conditions: oral glucose 3 g/kg at 0 min, versus vehicle
Description: All animal experiments described below and listed in Table 1 were performed in accordance to Austrian law and the principles of good laboratory animal care. Data shown in Table 1 are obtained using commercially available male mice purchased, e.g. from the breeding facilities of Charles River Lab. (USA). Male C57BL/6 mice were used at the age of 7-30 weeks and had free access to a standard laboratory chow diet (kg/kg: <10% crude fat) and water except for defined fasting periods before experimentation. They were maintained at room temperature and a 12 h/12 h light-dark cycle.
The antidiabetic activities of the products listed in Table 1 were evaluated in oral glucose tolerance tests in mice, in analogy to the procedure known to the general physician. Mice were fasted for 8-12 hours prior to oral glucose tolerance testing. For biological testing, the products listed in Table 1 were dissolved or suspended in 0.5% carboxymethylcellulose containing 1-2% acetic acid. A control group receiving no test product was examined in parallel in each test run. The control group received the same amount of a 0.5% carboxymethylcellulose solution containing 1-2% acetic acid (vehicle). Administration of products listed in Table 1 or vehicle at T=−45 min was followed after 45 min by oral administration via gavage of a glucose solution (3 g/kg) at T=0 min. Blood was collected via puncture of the tip of the tail immediately before administration of products listed in Table 1 or vehicle, immediately before administration of glucose, and at T=30 min and/or T=90 and/or T=150 as the case may be. Blood glucose was determined using portable glucometers as commonly used in human diabetes.
The increment in blood glucose at T=min over levels measured at T=0 min was calculated for each animal. Mean values of the increment for treatment group and vehicle group were compared (typical group size n=6-10 mice). Percent reduction induced by products listed in Table 1 versus vehicle was the readout parameter for glucose-lowering activity. As listed in Table 1, an effect of 1 means a reduction of more than 15% of incremental blood glucose at the given time point T=min versus vehicle group.
Antidiabetic effects of products are listed in Table 1 as evaluated in a glucose tolerance test in mice.

[1] = product dose 90 mg/kg per os at -45 min, glucose measurement at 30 min
[2] = product dose 45 mg/kg per os at -45 min, glucose measurement at 30 min

SMILES | Antidiabetic activity [1] | Antidiabetic activity [2] | further results
CC1(c2ccc(F)cc2)CCC2(C)CC(=O)CCN2C1 (stereo not shown) [Product 3b, 7-(4-fluorophenyl)-7,9a-dimethyloctahydro-2H-quinolizin-2-one] | 1 (an effect of 1 means a reduction of more than 15% of incremental blood glucose at the given time point T=min versus vehicle group) |  | 
CC1(c2ccc(F)cc2)CCC2(C)CC3(CCCO3)CCN2C1 (stereo not shown) [Product 5b, 7′-(4-fluorophenyl)-7′,9a′-dimethyldecahydro-3H-spiro[furan-2,2′-quinolizine]] |  | 1 (an effect of 1 means a reduction of more than 15% of incremental blood glucose at the given time point T=min versus vehicle group) | 
CC1(c2ccc(F)cc2)CCC2(C)CC3(CCC(=O)O3)CCN2C1 (stereo not shown) [Product 6b, 7′-(4-fluorophenyl)-7′,9a′-dimethyldecahydro-5H-spiro[furan-2,2′-quinolizine]-5-one] |  | 1 (an effect of 1 means a reduction of more than 15% of incremental blood glucose at the given time point T=min versus vehicle group) | 
CC1(c2ccccc2)CCC2(C)CC3(CCCO3)CCN2C1 (stereo not shown) [Product 5a, 7′,9a′-dimethyl-7′-phenyldecahydro-3H-spiro[furan-2,2′-quinolizine]] |  |  | Antidiabetic activity (product dose 22.5 mg/kg per os at -45 min, glucose measurement at 30 min): 1 (an effect of 1 means a reduction of more than 15% of incremental blood glucose at the given time point T=min versus vehicle group); Antidiabetic activity (product dose 90 mg/kg per os at -45 min, glucose measurement at 90 min): 1 (an effect of 1 means a reduction of more than 15% of incremental blood glucose at the given time point T=min versus vehicle group); Antidiabetic activity (product dose 90 mg/kg per os at -45 min, glucose measurement at 150 min): 1 (an effect of 1 means a reduction of more than 15% of incremental blood glucose at the given time point T=min versus vehicle group)
CC1(c2ccccc2)CCC2(C)CC(=O)CCN2C1 (stereo not shown) [Product 3a, 7,9a-dimethyl-7-phenyloctahydro-2H-quinolizin-2-one] | 1 (an effect of 1 means a reduction of more than 15% of incremental blood glucose at the given time point T=min versus vehicle group) |  | 
